Measured values reported in patent US20250108100A1, “C-TERMINAL FRAGMENT OF APOLIPOPROTEIN E AND APPLICATION THEREOF IN INHIBITING y-SECRETASE ACTIVITY” (SYNPHATEC (SHANGHAI) BIOPHARMACEUTICAL TECHNOLOGY CO., LTD., priority 2022, published 2025).
Entries after “also recorded” stand apart in the source; their conditions may differ.

Key:
[1] = system: human APP co-expressed in HEK 293T cells; assay: α-CTF produced by APP co-expressed in HEK 293T cells (Western blot); assay type: cell-based; conditions: for α-CTF produced by co-expressed APP: Western blot, vs GFP control
Protocol: • a) A plasmid expressing the target protein in mammalian cells was constructed, and the protein expression promoter is CAG. • b) The target protein was expressed in HEK 293T cell line. Cells were subcultured one day before transfection, and transfection was performed when the degree of cell adhesion reached 70%-80%. The transfection reagent was lipofectamine2000 (ThermoFisher). • c) 4-6 hours post transfection, the medium were replaced with fresh cell culture medium. • d) 36-48 hours post transfection, the cells were lysed (10% 1M tris-HCl (pH=6.8), 4% SDS, 20% glycerol, 0.01% bromophenol blue), and the protein samples were collected and used for Western blot or stored in a −80° C. freezer. • e) Polyacrylamide gel electrophoresis. Before protein loading, the protein was boiled at 98° C. for 10 min, and then centrifuged at 12000 rpm for 10 min. Electrophoresis: 80V for the upper stacking gel; 120V for the lower separating gel. • f) Protein transfer. The filter paper was soaked in the electrophoresis solution before use, and the PVDF membrane was put in methanol for 10s to activate, and the gel after electrophoresis was taken out from the electrophoresis tank, put in the order of filter paper—PVD membrane—gel-filter paper from bottom to top, and they were put into the transfer instrument, with transferring in constant current at 0.1 A for 70 min. • g) Blocking and antibody incubation: the transferred PVDF membrane was placed in 5% BSA/TBST blocking solution, and blocked on a shaker at room temperature for 1 hour. The primary antibody was used to incubate at 4° C. overnight on a shaker (12-16 h); 1×TBST was used to wash three times, once every 10 minutes; the secondary antibody was used to incubate, shaked at room temperature for 1-2 h; 1×TBST was used to wash three times, once every 10 minutes. • h) Imaging by development: development was performed with ECL chemiluminescence hypersensitive chromogenic reagent.
(§1) Plasmids were transfected in HEK 293T or N2A cells for 36-48 hours and then lysed in cell lysis buffer [10% 1M tris-HCl (pH=6.8), 4% SDS, 20% glycerol, 0.01% bromophenol blue]. Lysates were shaken at room temperature for 10 min, then boiled for 10 min, and centrifuged at 12,000×g for 10 min. Proteins were run on 8% or 12% Tris-glycine SDS-PAGE and transferred to PVDF membranes (Life Technologies). Samples were incubated overnight at 4° C. with primary antibody diluted in 5% BSA buffer (in 1×TBST). After washing 3 times with 1×TBST, they were incubated with secondary antibody diluted in 5% BSA buffer (in 1×TBST) for 2 hours at room temperature. Finally, after washing 3 times with 1×TBST, the signal was detected by ECL Western blotting substrate (Solarbio, PE0010).
(§2) Data were analyzed by GraphPad Prism software (v6) using unpaired, paired, or one-sample t-tests. Aβ40 and Aβ42 levels were normalized to the corresponding GFP controls. α-CTF levels were normalized to FL-APP and corresponding GFP controls. All data are represented as mean±SEM. Statistical significance was defined as p<0.05. One, two, three and four stars (*) in the graph indicate p-values <0.05, <0.01, <0.001 and <0.0001, respectively.

[2] = system: γ-secretase (PS1, PS2) knockout HEK 293T cells; assay: PS1 KO, PS2 KO and PS1/2 dKO HEK 293T cell lines: α-CTF and Aβ40; assay type: cell-based, human; conditions: PS1 single knockout HEK 293T cells
Protocol: (§3) • a) A plasmid expressing the target protein in mammalian cells was constructed, and the protein expression promoter is CAG. • b) The target protein was expressed in HEK 293T cell line. Cells were subcultured one day before transfection, and transfection was performed when the degree of cell adhesion reached 70%-80%. The transfection reagent was lipofectamine2000 (ThermoFisher). • c) 4-6 hours post transfection, the medium were replaced with fresh cell culture medium. • d) 36-48 hours post transfection, the cells were lysed (10% 1M tris-HCl (pH=6.8), 4% SDS, 20% glycerol, 0.01% bromophenol blue), and the protein samples were collected and used for Western blot or stored in a −80° C. freezer. • e) Polyacrylamide gel electrophoresis. Before protein loading, the protein was boiled at 98° C. for 10 min, and then centrifuged at 12000 rpm for 10 min. Electrophoresis: 80V for the upper stacking gel; 120V for the lower separating gel. • f) Protein transfer. […]

APLP1 = assay: γ-cleavage of APLP1 expressed in HEK 293T cells (Western blot); assay type: cell-based; conditions: PF03084014 at 1 μM
Protocol: as §3
Plasmids were transfected in HEK 293T or N2A cells for 36-48 hours and then lysed in cell lysis buffer [10% 1M tris-HCl (pH=6.8), 4% SDS, 20% glycerol, 0.01% bromophenol blue]. […] Finally, after washing 3 times with 1×TBST, the signal was detected by ECL Western blotting substrate (Solarbio, PE0010).

N100 (NOTCH fragment) = assay: γ-cleavage of NOTCH fragment N100 in HEK 293T cells co-expressing γ-secretase (Western blot); assay type: cell-based; conditions: N100-V5 and γ-secretase, PF03084014 at 1 uM
Protocol: as §1

[3] = system: endogenously expressed APP in primary cultured mouse neurons; assay: APP metabolite ~14 kD CTF in primary cultured mouse neurons (Western blot); assay type: cell-based; conditions: PF03084014 at 1 uM
human γ-secretase = target: T1, human γ-secretase (Homo sapiens, UniProt P49768); assay: Purified system: cleavage of purified β-CTF by purified γ-secretase to Aβ40 (ELISA); assay type: biochemical
T1 construct: full-length PS1, FL-PS1; N-terminal fragment of PS1, PS1 NTF; C-terminal fragment of PS1, PS1 CTF; made in house; host or cells: HEK 293T

[4] = system: human APP and β-secretase co-expressed in HEK 293T cells; assay: HEK 293T cells co-expressing APP and β-secretase (BACE1): Aβ ELISA and β-CTF Western blot; assay type: cell-based; conditions: APP and β-secretase co-expressed, ELISA, vs GFP control
Protocol: The experiment was performed according to the standard procedure in the ELISA analysis kit of Invitrogen Company. • a) The target protein was expressed in HEK 293T cell line. Cells were subcultured one day before transfection, and transfection was performed when the degree of cell adhesion reached 70%-80%. The transfection reagent was lipofectamine2000 (ThermoFisher). • b) 4-6 hours post transfection, medium were replaced with fresh cell culture medium. • c) 36-48 hours post transfection, the cell culture medium was collected, and then the ELISA process was performed or the cell culture medium was frozen in a −80° C. refrigerator. • d) 50 μl of standard samples and experimental samples were added to each well of the 96-well plate. • e) 50 μl of human-derived Aβ40 or Aβ42 or mouse-derived Aβ40 detection antibody was added to each well of the 96-well plate. • f) The above samples were shaken gently and placed at room temperature for 3 hours. • g) The liquid in the well were removed, and the plate was washed 4 times with 1× wash buffer. • h) 100 μl of the buffer containing 1× anti-Rabbit IgG HRP was added. • i) The plate was shaken gently and placed at room temperature for […]. • j) The liquid in the well were removed, and the well was washed 4 times with 1× wash buffer. • k) 100 μl of Stabilized Chromogen was added to each well, and the plate was placed in the dark for 30 minutes at room temperature. • l) 100 μl of Stop Solution was added to each well. • m) The absorbance at 450 nm was measured with a microplate reader. 2.4 qRT-PCR
48 hours after transfection of HEK 293T cells and N2A cells, or 4.5 days after lentivirus infection of neurons, media and lysates were collected. Aβ40 and Aβ42 in the culture medium and cell lysates were detected by an Aβ ELISA kit as indicated in the protocol. (Invitrogen Technology; KHB3481 for human Aβ40, KHB3441 for human Aβ42 and KMB3481 for mouse Aβ40).
as §2

APP = assay: APEX2 proximity labeling between ApoE and APP in HEK 293T cells; assay type: binding, human; conditions: co-expressed in HEK 293T cells
Sequence of APP (P05067 672-770 limits assumed): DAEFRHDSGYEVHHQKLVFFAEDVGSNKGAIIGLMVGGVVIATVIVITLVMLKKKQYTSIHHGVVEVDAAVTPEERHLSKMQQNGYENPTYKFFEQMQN
Protocol: (§4) A method for detecting protein interactions in living cells by targeting APEX2 was applied as previously described (Hung et al., 2016). Approximately 30 hours after transfection with APEX2 plasmids via Lipofectamine2000 (Invitrogen Technology), HEK 293T cells were incubated in 1 ml of complete medium with or without 250 uM biotinphenol (BP) for 30 minutes at 37° C. Cells were treated with 1 mM H2O2 for 1 min and cells were washed 3 times in quencher solution (10 mM sodium ascorbate, 5 mM Trolox and 10 mM sodium azide solution in 1×DPBS). Cells were lysed in RIPA lysis buffer (1× protein inhibitor cocktail, 1 mM PMSF and 10 mM sodium ascorbate, 5 mM Trolox and 10 mM sodium azide). The lysate was sonicated and centrifuged on ice (12,000×g, 4° C., 10 min), and the supernatant was incubated with streptavidin magnetic beads overnight at 4° C. The beads were collected using a magnetic rack and washed with a series of buffers (twice with RIPA buffer, once with 1M KCl, once with 0.1M Na2CO3, twice with 2 M urea in 10 mM Tris-HCl, pH 8.0, and twice with RIPA lysis buffer. Biotinylated proteins were eluted from the beads by boiling each sample in loading buffer comprising 2 mM biotin and 20 mM DTT for 10 min, and the eluates were collected. Samples proceed to Western blot.

ADAM10 (α-secretase) = target: T2, ADAM10 (α-secretase) (Homo sapiens, UniProt O14672); assay: ApoE2-APEX2 proximity labeling of co-expressed ADAM10 in HEK 293T cells; assay type: binding
T2 construct: expressed in transfected cells; host or cells: HEK 293T
T2 sequence (O14672 214-748): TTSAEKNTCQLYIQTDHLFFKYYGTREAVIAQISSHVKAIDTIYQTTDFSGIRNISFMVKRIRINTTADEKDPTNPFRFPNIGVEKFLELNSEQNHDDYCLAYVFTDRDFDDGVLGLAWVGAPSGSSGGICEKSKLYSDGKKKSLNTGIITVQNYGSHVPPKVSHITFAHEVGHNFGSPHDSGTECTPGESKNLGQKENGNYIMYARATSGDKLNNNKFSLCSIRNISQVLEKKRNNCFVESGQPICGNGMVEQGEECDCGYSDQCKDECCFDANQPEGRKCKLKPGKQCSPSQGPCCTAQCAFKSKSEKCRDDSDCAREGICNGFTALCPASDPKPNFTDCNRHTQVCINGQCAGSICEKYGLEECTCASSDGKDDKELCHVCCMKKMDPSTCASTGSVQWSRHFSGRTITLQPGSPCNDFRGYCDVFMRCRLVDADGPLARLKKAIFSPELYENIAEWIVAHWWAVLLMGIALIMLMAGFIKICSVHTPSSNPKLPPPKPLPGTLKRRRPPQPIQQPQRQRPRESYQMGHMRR
Protocol: as §4

[5] = system: endogenously expressed APP; assay: APEX2 proximity labeling of endogenous APP in primary cultured neurons; assay type: binding; conditions: primary cultured rat neurons
PS2 = target: T3, PS2 (Homo sapiens, UniProt P49810); assay: ApoE2-APEX2 proximity labeling of co-expressed PS2 in HEK 293T cells; assay type: binding
T3 construct: expressed in transfected cells; host or cells: HEK 293T
Protocol: as §4

[6] = system: APP co-expressed in mouse neuron cell line N2A; assay: α-CTF produced by APP co-expressed in N2A cells (Western blot); assay type: cell-based; conditions: Western blot, vs GFP control
Protocol: as §1, §2

CNC(=O)[C@@H](NC(=O)[C@H](CCCc1ccccc1)[C@H](C)N(O)C=O)C(C)(C)C [GI254023X, reference compound]
α-CTF level after ADAM10 inhibitor ([1]; 1 μM): about 45%

CCC[C@H](N[C@H]1CCc2cc(F)cc(F)c2C1)C(=O)Nc1cn(C(C)(C)CNCC(C)(C)C)cn1 [PF03084014]
α-CTF produced by APP co-expressed with PS1 ([1]; APP and PS1 co-expressed, PF03084014 at 1 μM): significantly increases α-CTF; also recorded: can increase the production of α-CTF; also recorded: also increases α-CTF | α-CTF in PS1 KO cells [2]: further increased α-CTF levels | α-like CTF of APLP1 (APLP1): significantly increase the α-like CTF; also recorded: enhancing its cleavage product; also recorded: increased the α-like CTF | γ-secretase-dependent reduction of N100 (N100 (NOTCH fragment)): reversed this reduction | level of ~14 kD CTF (CTF141D) produced by APP metabolism [3]: significantly increased | generation of Aβ by γ-secretase and β-CTF (human γ-secretase; 10 μM inhibitor): can inhibit the generation of Aβ; also recorded: can be inhibited | Aβ40 produced by incubation of γ-secretase with β-CTF (human γ-secretase; Example 2, legend b49: 1 uM inhibitor): complete blocked

ApoA1: another apolipoprotein co-expressed with APP, apolipoprotein A1
α-CTF produced by co-expressed APP [1]: failed to alter the levels of α-CTF | production of Aβ40 [4]: failed to alter

ApoE2-APEX2: ApoE2 fused to APEX2 (ascorbate peroxidase 2) for proximity labeling
biotinylation of FL-APP and α-CTF (APP): could also be biotinylated | biotinylation of co-expressed ADAM10 (ADAM10 (α-secretase)): biotinylated | biotinylation of endogenously expressed APP [5]: biotinylates | biotinylation of co-expressed PS2 (PS2): biotinylated

ApoE2-V5: ApoE2 with tag protein V5 (SEQ ID NO: 82) at C-terminal
α-CTF produced by co-expressed APP [1]: can significantly increase the α-CTF

ApoE3: human apolipoprotein E3, full-length 299 amino acid residues, SEQ ID NO: 89
α-CTF produced by co-expressed APP [1]: can significantly increase α-CTF; also recorded: significantly increased the α-CTF levels | production of Aβ40 [4]: have no such effect | α-CTF produced by co-expressed APP [6]: significantly increased the α-CTF levels

ApoE4: human ApoE isoform ApoE4 (Arg112; Arg158)
α-CTF produced by co-expressed APP [1]: cannot significantly change α-CTF | production of Aβ40 [4]: have no such effect; also recorded: failed to alter | α-CTF produced by co-expressed APP [6]: failed to alter α-CTF levels

CT ND3CD25: SEQ ID NO: 32; ApoE CT minus 3 N-terminal and 25 C-terminal residues (EEMGSRTRDRLDEVKEQVAEVRAKLEEQAQQIRLQAEAFQARLKSWFEPLVEDMQR)
production of Aβ40 [4]: can still significantly reduce Aβ40

V5-ApoE2: ApoE2 with tag protein V5 (SEQ ID NO: 82) at N-terminal
α-CTF produced by co-expressed APP [1]: can significantly increase the α-CTF
